Experimental data: patent publication US9156822B2, “Functionally selective ligands of dopamine D2 receptors” (The University of North Carolina at Chapel Hill, priority 2010, dated 2015)

Key:
D2 receptors [1] = target: T1, D2 receptors (Homo sapiens (Human), UniProt P14416); assay: D2 β-arrestin recruitment (Tango) assay; format: cell-based; conditions: for Emax: normalized to quinpirole (100%); for EC50: HTLA cells, read-out: β-arrestin (Tango) EC50
Method: The next day, cells were plated in white, clear-bottom, 384-well plates (Greiner, 10,000 cells/well, 50 μl/well) in DMEM containing 1% dialyzed fetal bovine serum. […] Data were normalized to vehicle (0%) and quinpirole (100%) controls and regressed using the sigmoidal dose-response function built into GraphPad Prism 4.0.
Target sequence in this assay (P14416 whole entry, looked up): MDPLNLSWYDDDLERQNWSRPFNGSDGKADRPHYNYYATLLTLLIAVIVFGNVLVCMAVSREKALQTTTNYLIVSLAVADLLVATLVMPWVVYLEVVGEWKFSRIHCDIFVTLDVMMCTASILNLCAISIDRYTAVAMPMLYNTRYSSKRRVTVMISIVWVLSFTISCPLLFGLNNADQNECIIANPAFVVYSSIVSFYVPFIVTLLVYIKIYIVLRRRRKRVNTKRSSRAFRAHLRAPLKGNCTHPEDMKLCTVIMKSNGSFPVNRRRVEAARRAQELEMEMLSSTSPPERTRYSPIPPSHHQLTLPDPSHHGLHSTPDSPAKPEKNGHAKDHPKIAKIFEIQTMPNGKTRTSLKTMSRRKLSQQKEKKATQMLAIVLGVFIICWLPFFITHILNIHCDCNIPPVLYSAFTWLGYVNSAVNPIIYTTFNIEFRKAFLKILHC

D2 receptors [2] = target: T1, D2 receptors; assay: CHO-D2 radioligand binding assay ([3H]N-methylspiperone competition); conditions: CHO-D2 membranes, [3H]N-methylspiperone; read-out: D2 Binding Ki ± SEM
Target sequence in this assay (P14416 whole entry): as the sequence (P14416 whole entry, looked up) above

hD2 receptors = hD2 receptors (Homo sapiens (Human), UniProt P14416); assay: D2 mediated cAMP GloSensor assay; format: cell-based; conditions: for EC50: HEK293T, isoproterenol-stimulated cAMP; for Emax: normalized to quinpirole, negative = inverse agonist, read-out: cAMP (GloSensor) Emax; as to cAMP (GloSensor) activity in words (merged EC50/Emax cell): key: neutral: Neutral ligands are either antagonists or are inactive
in vivo = conditions: mouse

hD2 receptors, sequence (P14416 whole entry): as the sequence (P14416 whole entry, looked up) above

Question: With CCOc1ccccc1N1CCCN(CCCCOc2ccc3ccc(=O)[nH]c3c2)CC1 [Compound 14, 7-(4-(4-(2-ethoxyphenyl)-1,4-diazepan-1-yl)butoxy)quinolin-2(1H)-one] as the compound, how does the Emax (D2 receptors [1]) read?
Answer: 58%

Question: Which Ki (D2 receptors [2]) does the source give for O=C1NCCc2ccc(OCCCCN3CCN(c4cccc(Cl)c4Cl)CC3)cc21 [Compound 25, 7-(4-(4-(2,3-dichlorophenyl)piperazin-1-yl)butoxy)-3,4-dihydroisoquinolin-1(2H)-one] here?
Answer: 18 ± 3 nM

Question: What about the EC50 (hD2 receptors) of the same compound?
Answer: 3700 nM

Question: And the Emax (hD2 receptors)?
Answer: -74%

Question: And the “β-arrestin (Tango) % activ at 1 μM” value (D2 receptors [1])?
Answer: 12%

Question: What about the EC50 (D2 receptors [1]) of the same compound?
Answer: 18 nM

Question: What about the Emax (D2 receptors [1]) of the same compound?
Answer: 55%

Question: With O=C1CCc2ccc(OCCCCN3CCN(c4cccc5c4OCCO5)CC3)cc2N1 [Compound 40, 7-(4-(4-(2,3-dihydrobenzo[b][1,4]dioxin-5-yl)piperazin-1-yl)butoxy)-3,4-dihydroquinolin-2(1H)-one] as the compound, how does the Ki (D2 receptors [2]) read?
Answer: 0.3 ± 0.02 nM

Question: And the “cAMP (GloSensor) activity in words (merged EC50/Emax cell)” value (“cAMP … (merged EC50/Emax cell)” below) (hD2 receptors)?
Answer: neutral

Question: What about the EC50 (D2 receptors [1]) of the same compound?
Answer: 1.5 nM

Question: What about the Emax (D2 receptors [1]) of the same compound?
Answer: 33%

Question: With O=C1CCc2ccc(OCCCCN3CCN(c4cccc(Cl)c4Cl)CC3)cc2N1 [Aripiprazole, aripiprazole, reference compound] as the compound, how does the AUC(0-inf) (in vivo; brain) read?
Answer: 1180 ng·h/mL

Question: What about the AUC(0-t) (in vivo; brain) of the same compound?
Answer: 1100 ng·h/mL

Question: What about the Cmax (in vivo; brain) of the same compound?
Answer: 166 ng/mL

Question: And the Tmax (in vivo; brain)?
Answer: 30 min

Question: What about the AUC(0-inf) (in vivo; plasma) of the same compound?
Answer: 445 ng·h/mL

Question: What about the AUC(0-t) (in vivo; plasma) of the same compound?
Answer: 431 ng·h/mL

Question: And the Cmax (in vivo; plasma)?
Answer: 75.6 ng/mL

Question: What about the Tmax (in vivo; plasma) of the same compound?
Answer: 15 min

Question: Which Ki (D2 receptors [2]) does the source give for CC(C)Oc1ccccc1N1CCCN(CCCCOc2ccc3c(c2)NC(=O)CC3)CC1 [Compound 16, 7-(4-(4-(2-isopropoxyphenyl)-1,4-diazepan-1-yl)butoxy)-3,4-dihydroquinolin-2(1H)-one] here?
Answer: 0.87 ± 0.04 nM

Question: And the “cAMP … (merged EC50/Emax cell)” value (hD2 receptors)?
Answer: neutral

Question: What about the EC50 (D2 receptors [1]) of the same compound?
Answer: 4.2 nM

Question: And the Emax (D2 receptors [1])?
Answer: 53%

Question: With CC(C)Oc1ccccc1N1CCCN(CCCCOc2ccc3ccc(=O)[nH]c3c2)CC1 [Compound 18, 7-(4-(4-(2-isopropoxyphenyl)-1,4-diazepan-1-yl)butoxy)quinolin-2(1H)-one] as the compound, how does the Ki (D2 receptors [2]) read?
Answer: 0.93 ± 0.03 nM

Question: What about the EC50 (hD2 receptors) of the same compound?
Answer: 0.1 nM

Question: What about the Emax (hD2 receptors) of the same compound?
Answer: 32%

Question: And the EC50 (D2 receptors [1])?
Answer: 4.2 nM

Question: What about the Emax (D2 receptors [1]) of the same compound?
Answer: 58%

Question: Which results are given for CCOc1ccccc1N1CCCN(CCCCOc2ccc3c(n2)NC(=O)CC3)CC1 [Compound 13, 7-(4-(4-(2-ethoxyphenyl)-1,4-diazepan-1-yl)butoxy)-3,4-dihydro-1,8-naphthyridin-2(1H)-one]?
Answer: Ki (D2 receptors [2]): 4.4 ± 0.3 nM; cAMP (GloSensor) activity in words (merged EC50/Emax cell) (hD2 receptors): neutral; EC50 (D2 receptors [1]): 4 nM; Emax (D2 receptors [1]): 43%

Question: With COc1ccccc1N1CCCN(CCCCOc2ccc3ccc(=O)[nH]c3c2)CC1 [Compound 10, 7-(4-(4-(2-methoxyphenyl)-1,4-diazepan-1-yl)butoxy)quinolin-2(1H)-one] as the compound, how does the Emax (D2 receptors [1]) read?
Answer: 16%

Question: Which results are given for Clc1cccc(N2CCN(CCCCOc3ccc4cn[nH]c4c3)CC2)c1Cl [Compound 28, 6-(4-(4-(2,3-dichlorophenyl)piperazin-1-yl)butoxy)-1H-indazole]?
Answer: Ki (D2 receptors [2]): 66 ± 10 nM; EC50 (hD2 receptors): 5.7 nM; Emax (hD2 receptors): -29%; β-arrestin (Tango) % activ at 1 μM (D2 receptors [1]): 18%; EC50 (D2 receptors [1]): 92 nM; Emax (D2 receptors [1]): 65%

Question: For CCOc1ccccc1N1CCCN(CCCCOc2ccc3c(c2)NC(=O)CC3)CC1 [Compound 12, 7-(4-(4-(2-ethoxyphenyl)-1,4-diazepan-1-yl)butoxy)-3,4-dihydroquinolin-2(1H)-one], which Ki (D2 receptors [2]) is on record?
Answer: 4.1 ± 0.2 nM

Question: And the “cAMP … (merged EC50/Emax cell)” value (hD2 receptors)?
Answer: neutral

Question: And the EC50 (D2 receptors [1])?
Answer: 4.3 nM

Question: And the Emax (D2 receptors [1])?
Answer: 41%

Question: Which results are given for O=c1[nH]c2ccc(OCCCCN3CCN(c4cccc(Cl)c4Cl)CC3)cc2[nH]1 [Compound 35]?
Answer: Ki (D2 receptors [2]): 15 ± 3 nM; cAMP (GloSensor) activity in words (merged EC50/Emax cell) (hD2 receptors): neutral; β-arrestin (Tango) % activ at 1 μM (D2 receptors [1]): 19%; EC50 (D2 receptors [1]): 16 nM

Question: With COc1ccccc1N1CCCN(CCCCOc2ccc3c(c2)NC(=O)CC3)CC1 [Compound 9, 7-(4-(4-(2-methoxyphenyl)-1,4-diazepan-1-yl)butoxy)-3,4-dihydroquinolin-2(1H)-one] as the compound, how does the Ki (D2 receptors [2]) read?
Answer: 4 nM

Question: And the EC50 (hD2 receptors)?
Answer: 163 nM

Question: And the Emax (hD2 receptors)?
Answer: -63%

Question: What about the EC50 (D2 receptors [1]) of the same compound?
Answer: 4.6 nM

Question: And the Emax (D2 receptors [1])?
Answer: 26%

Question: With COc1ccccc1N1CCCN(CCCCOc2ccc3c(n2)NC(=O)CC3)CC1 [Compound 11, 7-(4-(4-(2-methoxyphenyl)-1,4-diazepan-1-yl)butoxy)-3,4-dihydro-1,8-naphthyridin-2(1H)-one] as the compound, how does the Emax (hD2 receptors) read?
Answer: -118%

Question: And the Emax (D2 receptors [1])?
Answer: 21%
